Measurements taken from patent publication US5024994A, “Renin inhibitors IV” (Warner-Lambert Company, priority 1988, dated 1991).
Non-standard residues stand in square brackets, D forms with d. Residues, ends and D or L forms follow the SMILES beside them. *: point of attachment. Arg(NO2) = N=C(NCCC[C@H](N)C(=O)O)N[N+](=O)[O-]; Sta = CC(C)C[C@H](N)[C@@H](O)CC(=O)O; Boc = CC(C)(C)OC(=O)*; NHBn = c1ccc(CN*)cc1

What follows are molecules tested against T1, renin (Homo sapiens, UniProt P00797) (assay: in vitro renin inhibitory activity, radioimmunoassay for angiotensin I). Conditions: not given.
T1 sequence (P00797 67-406): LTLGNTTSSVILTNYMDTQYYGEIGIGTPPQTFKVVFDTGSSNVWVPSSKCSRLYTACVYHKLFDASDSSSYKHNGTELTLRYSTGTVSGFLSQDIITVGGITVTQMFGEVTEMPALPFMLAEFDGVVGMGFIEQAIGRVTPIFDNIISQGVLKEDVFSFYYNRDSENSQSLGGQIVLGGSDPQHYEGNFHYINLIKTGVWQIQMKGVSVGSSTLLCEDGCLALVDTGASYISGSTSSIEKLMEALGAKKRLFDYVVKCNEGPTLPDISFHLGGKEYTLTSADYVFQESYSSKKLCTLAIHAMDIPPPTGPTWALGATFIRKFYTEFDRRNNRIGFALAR
Type: biochemical
Procedure: The effectiveness of the aforementioned compounds is determined by a test for in vitro renin inhibitory activity. This activity is determined by a standard radioimmunoassay for angiotensin I. In this assay the enzyme, renin, incubated for two hours at 37° in the presence of a substrate, angiotensinogen, generates the product, angiotensin I. Test compounds are added to the incubation mixture.

Row | Structure (SMILES) | IC50 [nM]
1 | CCC(C)CNC(=O)C[C@H](O)[C@H](CC(C)C)NC(=O)C(CC#CCNC(C)=O)NC(=O)C(Cc1cccc2ccccc12)Cc1cccc2ccccc12 (single isomer, unassigned) | 29
2 | CC(C)C[C@H](NC(=O)C[C@H](O)[C@H](CC(C)C)NC(=O)C(CCCC1CO1)NC(=O)C(Cc1cccc2ccccc12)Cc1cccc2ccccc12)C(=O)NCc1ccccc1 (single isomer, unassigned) [drawing 65] | 57

Same assay, conditions: at 10^-6 molar concentration; read-out: percent inhibition of renin activity

Row | Structure (SMILES) | inhibition at 1 µM [%]
3 | CC(C)C[C@H](NC(=O)C[C@H](O)[C@H](CC(C)C)NC(=O)C(CCCC1CO1)NC(=O)C(Cc1cccc2ccccc12)Cc1cccc2ccccc12)C(=O)NCc1ccccc1 (single isomer, unassigned) [drawing 66] | 47

Same assay, conditions: read-out: IC50

Row | Structure (SMILES) | IC50 [nM]
4 | CC[C@H](C)CNC(=O)C[C@H](O)[C@H](CC(C)C)NC(=O)[C@H](CCCCNC(=S)NCC(C)(C)C)NC(=O)C(Cc1cccc2ccccc12)Cc1cccc2ccccc12 | 450
5 | CCC(C)CNC(=O)C[C@H](O)[C@H](CC(C)C)NC(=O)[C@H](CCCCNC(=S)NC(C)(C)CC)NC(=O)C(Cc1cccc2ccccc12)Cc1cccc2ccccc12 (stereo partly drawn) | 7.5
6 | CCC(C)CNC(=O)C[C@H](O)[C@H](CC1CCCCC1)NC(=O)[C@H](CCCCNC(=N)N[N+](=O)[O-])NC(=O)C(Cc1cccc2ccccc12)Cc1cccc2ccccc12 (stereo partly drawn) | 15
7 | CC[C@H](C)CNC(=O)C[C@H](O)[C@H](CC(C)C)NC(=O)[C@H](CCCNC(=S)NC)NC(=O)C(Cc1cccc2ccccc12)Cc1cccc2ccccc12 | 280
8 | CC[C@H](C)CNC(=O)C[C@H](O)[C@H](CC(C)C)NC(=O)C(NC(=O)[C@H](Cc1ccccc1)NC(=O)OC(C)(C)C)C(=O)OC (stereo partly drawn) | 41
9 | CC[C@H](C)CNC(=O)C[C@H](O)[C@H](CC(C)C)NC(=O)C(NC(=O)C(Cc1cccc2ccccc12)Cc1cccc2ccccc12)C(=O)NCCc1cnc[nH]1 (stereo partly drawn) | 3100
10 | CC[C@H](C)CNC(=O)C[C@H](O)[C@H](CC(C)C)NC(=O)C(NC(=O)C(Cc1cccc2ccccc12)Cc1cccc2ccccc12)C(=O)N(C)C (stereo partly drawn) | 200
11 | CC[C@H](C)CNC(=O)C[C@H](O)[C@H](CC(C)C)NC(=O)C(Cc1nc2ccccc2[nH]1)NC(=O)C(Cc1cccc2ccccc12)Cc1cccc2ccccc12 (stereo partly drawn) | 2800
12 | CC[C@H](C)CNC(=O)C[C@H](O)[C@H](CC(C)C)NC(=O)C(CC#N)NC(=O)[C@H](Cc1ccccc1)NC(=O)CC(C)C (stereo partly drawn) | 570
13 | CCOC(=O)C(NC(=O)C(Cc1cccc2ccccc12)Cc1cccc2ccccc12)C(=O)N[C@@H](CC(C)C)[C@@H](O)CC(=O)NC[C@@H](C)CC (stereo partly drawn) | 23
14 | CCC(C)CNC(=O)C[C@H](O)[C@H](CC(C)C)NC(=O)C(NC(=O)C(Cc1cccc2ccccc12)Cc1cccc2ccccc12)C(=O)OC(C)C (stereo partly drawn) | 33
15 | CCC(C)CNC(=O)C[C@H](O)[C@H](CC(C)C)NC(=O)C(C/C=C\CNC(C)=O)NC(=O)C(Cc1cccc2ccccc12)Cc1cccc2ccccc12 (stereo partly drawn) | 100
16 | CC(C)(C)OC(=O)NCC#CCC(NC(=O)C(Cc1cccc2ccccc12)Cc1cccc2ccccc12)C(=O)N[C@@H](CC1CCCCC1)[C@@H](O)CC(=O)NCCN1CCOCC1 (stereo partly drawn) | 700
17 | O=CNCC#CCC(NC(=O)C(Cc1cccc2ccccc12)Cc1cccc2ccccc12)C(=O)N[C@@H](CC1CCCCC1)[C@@H](O)CC(=O)NCCN1CCOCC1 (stereo partly drawn) | 8
18 | CC(=O)NCC#CCC(NC(=O)C(Cc1cccc2ccccc12)Cc1cccc2ccccc12)C(=O)N[C@@H](CC1CCCCC1)[C@@H](O)CC(=O)NCCN1CCOCC1 (stereo partly drawn) | 8.6
19 | N=C(NCC#CCC(NC(=O)C(Cc1cccc2ccccc12)Cc1cccc2ccccc12)C(=O)N[C@@H](CC1CCCCC1)[C@@H](O)CC(=O)NCCN1CCOCC1)N[N+](=O)[O-] (stereo partly drawn) | 12
20 | CNC(=S)NCC#CCC(NC(=O)C(Cc1cccc2ccccc12)Cc1cccc2ccccc12)C(=O)N[C@@H](CC1CCCCC1)[C@@H](O)CC(=O)NCCN1CCOCC1 (stereo partly drawn) | 48
21 | CC[C@H](C)CNC(=O)C[C@H](O)[C@@H](NC(=O)[C@H](CCCCNC(=S)NC)NC(=O)C(Cc1cccc2ccccc12)Cc1cccc2ccccc12)C1CCCCC1 | 23
22 | CSC(=NC#N)NCCCC[C@H](NC(=O)C(CC(=O)N1CCOCC1)Cc1cccc2ccccc12)C(=O)N[C@@H](CC(C)C)[C@@H](O)CC(=O)NCCN1CCOCC1 (stereo partly drawn) | 350
23 | CC(C)C[C@H](NC(=O)[C@H](CCCCNC(=N)N[N+](=O)[O-])NC(=O)C(CC(=O)N1CCOCC1)Cc1cccc2ccccc12)[C@@H](O)CC(=O)NCCN1CCOCC1 (stereo partly drawn) | 420
24 | CNC(=S)NCCCC[C@H](NC(=O)C(CC(=O)N1CCOCC1)Cc1cccc2ccccc12)C(=O)N[C@@H](CC(C)C)[C@@H](O)CC(=O)NCCN1CCOCC1 (stereo partly drawn) | 560
25 | CNC(=S)NCCCC[C@H](NC(=O)C(Cc1cccc2ccccc12)Cc1cccc2ccccc12)C(=O)N[C@@H](CC1CCCCC1)[C@@H](O)CC(=O)NCCN1CCOCC1 | 29
26 | CNC(=S)NCCCC[C@H](NC(=O)C(CC(=O)N1CCOCC1)Cc1cccc2ccccc12)C(=O)N[C@@H](CC1CCCCC1)[C@@H](O)CC(=O)NCCN1CCOCC1 (stereo partly drawn) | 20
27 | CNC(=S)NCCCC[C@H](NC(=O)C(Cc1cccc2ccccc12)Cc1cccc2ccccc12)C(=O)N[C@@H](CC(C)C)[C@@H](O)CC(=O)NCCN1CCOCC1 | 120
28 | CC(C)C[C@H](NC(=O)[C@H](CCCCNC(=N)N[N+](=O)[O-])NC(=O)C(Cc1cccc2ccccc12)Cc1cccc2ccccc12)[C@@H](O)CC(=O)NCCN1CCOCC1 | 45
29 | CSC(=NC#N)NCCCC[C@H](NC(=O)C(Cc1cccc2ccccc12)Cc1cccc2ccccc12)C(=O)N[C@@H](CC(C)C)[C@@H](O)CC(=O)NCCN1CCOCC1 | 90
30 | CC[C@H](C)CNC(=O)C[C@H](O)[C@H](CC(C)C)NC(=O)[C@H](CCCCNC(=S)NC)NC(=O)C(Cc1ccccc1)Cc1cccc2ccccc12 (stereo partly drawn) | 140
31 | CC(C)C[C@H](NC(=O)C[C@H](O)[C@H](CC(C)C)NC(=O)[C@H](CCCNC(=N)N[N+](=O)[O-])NC(=O)[C@H](Cc1ccccc1)NC(=O)OC(C)(C)C)C(=O)NCc1ccccc1 [Example 1, BOC-PHE-ARG(NO2)-STA-LEU-NHCH2 Ph] (Boc-F[Arg(NO2)][Sta]L-NHBn) | 63

Continued, values first:

Row | IC50 [nM] | Structure (SMILES)
32 | 18 | CCC(C)CNC(=O)C[C@H](O)[C@H](CC(C)C)NC(=O)[C@H](CCCCNC(N)=NC#N)NC(=O)C(Cc1cccc2ccccc12)Cc1cccc2ccccc12 (stereo partly drawn)
33 | 15 | CCC(C)CNC(=O)C[C@H](O)[C@H](CC(C)C)NC(=O)[C@H](CCCCNC(=NC#N)NC)NC(=O)C(Cc1cccc2ccccc12)Cc1cccc2ccccc12 (stereo partly drawn)
34 | 540 | CCC(C)CNC(=O)C[C@H](O)[C@H](CC(C)C)NC(=O)[C@H](CCCCn1cccc1)NC(=O)C(Cc1cccc2ccccc12)Cc1cccc2ccccc12 (stereo partly drawn)
35 | 84 | CNC(=O)NCCCC[C@H](NC(=O)C(Cc1cccc2ccccc12)Cc1cccc2ccccc12)C(=O)N[C@@H](CC(C)C)[C@@H](O)CC(=O)N[C@@H](CC(C)C)C(=O)NCc1ccccc1
36 | 290 | CCC(C)CNC(=O)C[C@H](O)[C@H](CC(C)C)NC(=O)C(CCCCCNC(=O)OCc1ccccc1)NC(=O)C(Cc1cccc2ccccc12)Cc1cccc2ccccc12 (stereo partly drawn)
37 | 40 | CCC(C)CNC(=O)C[C@H](O)[C@H](CC(C)C)NC(=O)C(CCCCCNC(=S)NC)NC(=O)C(Cc1cccc2ccccc12)Cc1cccc2ccccc12 (stereo partly drawn)
38 | 45 | CC[C@H](C)CNC(=O)C[C@H](O)[C@H](CC(C)C)NC(=O)C(CCCCCCNC(N)=NC#N)NC(=O)C(Cc1cccc2ccccc12)Cc1cccc2ccccc12 (stereo partly drawn)
39 | 59 | CC(C)C[C@H](NC(=O)C[C@H](O)[C@H](CC(C)C)NC(=O)C(CCCCCCNC(=O)OCc1ccccc1)NC(=O)C(Cc1cccc2ccccc12)Cc1cccc2ccccc12)C(=O)NCc1ccccc1 (stereo partly drawn)
40 | 890 | CC[C@H](C)CNC(=O)C[C@H](O)[C@H](CC(C)C)NC(=O)[C@H](CCCNC(=O)NC)NC(=O)C(Cc1cccc2ccccc12)Cc1cccc2ccccc12
41 | 50 | CC[C@H](C)CNC(=O)C[C@H](O)[C@H](CC(C)C)NC(=O)[C@H](CCCCNC(N)=O)NC(=O)C(Cc1cccc2ccccc12)Cc1cccc2ccccc12
42 | 1200 | CC[C@H](C)CNC(=O)C[C@H](O)[C@H](CC(C)C)NC(=O)C(CCCCCC(=O)NC)NC(=O)C(Cc1cccc2ccccc12)Cc1cccc2ccccc12 (stereo partly drawn)
43 | 98 | CC[C@H](C)CNC(=O)C[C@H](O)[C@H](CC(C)C)NC(=O)[C@H](CCCCNC(=O)CSC)NC(=O)C(Cc1cccc2ccccc12)Cc1cccc2ccccc12
44 | 68 | CC[C@H](C)CNC(=O)C[C@H](O)[C@H](CC(C)C)NC(=O)[C@H](CCCCNC(=O)CS(C)(=O)=O)NC(=O)C(Cc1cccc2ccccc12)Cc1cccc2ccccc12
45 | 41 | CC[C@H](C)CNC(=O)C[C@H](O)[C@H](CC(C)C)NC(=O)[C@H](CCCCNC(=O)C[S+](C)[O-])NC(=O)C(Cc1cccc2ccccc12)Cc1cccc2ccccc12 (stereo partly drawn)
46 | 13 | CCOC(=O)C(NC(=O)C(Cc1cccc2ccccc12)Cc1cccc2ccccc12)C(=O)N[C@@H](CC(C)C)[C@@H](O)CC(=O)N[C@@H](CC(C)C)C(=O)NCc1ccccn1 (stereo partly drawn)
47 | 91 | C=CCCCC(NC(=O)C(Cc1cccc2ccccc12)Cc1cccc2ccccc12)C(=O)N[C@@H](CC(C)C)[C@@H](O)CC(=O)N[C@@H](CC(C)C)C(=O)NCc1ccccc1 (single isomer, unassigned; isomer a) [Example 48, DNMA-NHCH(CH2 CH2 CH2 CH=CH2)CO-STA-LEU-NHCH2 Ph (ISOMER A)]
48 | 3500 | C=CCCCC(NC(=O)C(Cc1cccc2ccccc12)Cc1cccc2ccccc12)C(=O)N[C@@H](CC(C)C)[C@@H](O)CC(=O)N[C@@H](CC(C)C)C(=O)NCc1ccccc1 (single isomer, unassigned; isomer b) [Example 49, DNMA-NHCH(CH2 CH2 CH2 CH=CH2)CO-STA-LEU-NHCH2 Ph (ISOMER B)]
